{
  "source": "paper PMC6028453",
  "about": "“BrlR from Pseudomonas aeruginosa is a receptor for both cyclic di-GMP and pyocyanin” (Nature Communications, 2018)",
  "key": {"BrlR-DNA binding (PbrlR)": {"target": "T1, BrlR-DNA binding (PbrlR) (Pseudomonas aeruginosa, UniProt Q9HUT5)", "T1 construct": "His6-SUMO (N, cleaved yes); made in house; host or cells: E. coli BL21 DE3", "assay": "EMSA, wild-type BrlR with PbrlR DNA", "type": "biochemical", "protocol": "(§1) A 6-carboxy-fluorescein (FAM)-labeled 36-bp brlR promoter DNA (PbrlR) or 80-bp mexA/mexE promoter DNA (PmexA/PmexE) probes (~0.375 pmol), BrlR protein and varying amounts of inducers were incubated in binding buffer (10 mM Tris HCl [pH 7.4], 50 mM KCl, 1 mM DTT, […] and 5 ng/mL poly [dI-dC]) for 60 min at 25 °C. Finally, glycerol was added to a concentration of 6.5%. The samples were subjected to a 5% polyacrylamide gel electrophoresis and run in 0.5 × Tris-borate-EDTA buffer at 80 V for 1 h at room temperature. Imaging and data analyses were performed using a Typhoon Scanner (GE Healthcare) and Imagequant software. The probes used are listed in Supplementary Table 1."}, "BrlR R86A DNA binding": {"target": "T2, BrlR R86A DNA binding (Pseudomonas aeruginosa, UniProt Q9HUT5, R86A)", "T2 construct": "His6-SUMO (N, cleaved yes); made in house; host or cells: E. coli BL21 DE3", "T2 sequence (Q9HUT5 whole entry R86A)": "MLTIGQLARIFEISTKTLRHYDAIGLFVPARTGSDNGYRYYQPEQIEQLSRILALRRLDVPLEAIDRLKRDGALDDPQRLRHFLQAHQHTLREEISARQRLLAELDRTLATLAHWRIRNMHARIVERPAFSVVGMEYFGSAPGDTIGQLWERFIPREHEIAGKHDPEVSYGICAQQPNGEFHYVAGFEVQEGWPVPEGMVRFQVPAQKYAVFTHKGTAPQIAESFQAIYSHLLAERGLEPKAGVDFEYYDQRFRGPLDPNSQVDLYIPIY", "assay": "EMSA, BrlR R86A", "type": "biochemical", "protocol": "as §1"}, "BrlR R31A DNA binding": {"target": "T3, BrlR R31A DNA binding (Pseudomonas aeruginosa, UniProt Q9HUT5, R31A)", "T3 construct": "His6-SUMO (N, cleaved yes); made in house; host or cells: E. coli BL21 DE3", "T3 sequence (Q9HUT5 whole entry R31A)": "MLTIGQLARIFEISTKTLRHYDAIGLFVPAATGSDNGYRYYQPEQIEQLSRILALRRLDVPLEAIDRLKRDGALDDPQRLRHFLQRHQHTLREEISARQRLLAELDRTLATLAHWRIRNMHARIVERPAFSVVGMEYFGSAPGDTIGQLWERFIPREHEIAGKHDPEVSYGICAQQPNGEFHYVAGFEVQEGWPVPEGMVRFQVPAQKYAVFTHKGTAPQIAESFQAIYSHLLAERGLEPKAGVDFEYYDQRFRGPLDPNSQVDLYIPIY", "assay": "EMSA, BrlR R31A", "type": "biochemical", "protocol": "as §1"}, "BrlR": {"target": "T4, BrlR (Pseudomonas aeruginosa, UniProt Q9HUT5)", "T4 construct": "His6-SUMO (N, cleaved yes); made in house; host or cells: E. coli BL21 DE3", "assay": "FP competition experiment, wild-type BrlR", "type": "binding", "settings": "320 μM BrlR, 1 nM F-c-di-GMP, 760 μM c-di-GMP added", "protocol": "Supplementary Figure 4: Fluorescence polarization competition experiment. Wt BrlR was added to a final concentration of 320 μM in the reaction buffer containing 1 nM F-c-di-GMP, and the binding […]\ncurve was recorded. […] After the addition of\n760 μM c-di-GMP (indicated with an arrow in the figure), an apparent competition with the fluoresceinated c-di-GMP could be observed by the remarkable decrease in millipolarization units.\n(1 picture or pasted object on this page, not shown here)"}, "C2E mut2 DNA binding": {"target": "T5, C2E mut2 DNA binding (Pseudomonas aeruginosa, UniProt Q9HUT5, R67A/R86A)", "T5 construct": "His6-SUMO (N, cleaved yes); made in house; host or cells: E. coli BL21 DE3", "T5 sequence (Q9HUT5 whole entry R67A/R86A)": "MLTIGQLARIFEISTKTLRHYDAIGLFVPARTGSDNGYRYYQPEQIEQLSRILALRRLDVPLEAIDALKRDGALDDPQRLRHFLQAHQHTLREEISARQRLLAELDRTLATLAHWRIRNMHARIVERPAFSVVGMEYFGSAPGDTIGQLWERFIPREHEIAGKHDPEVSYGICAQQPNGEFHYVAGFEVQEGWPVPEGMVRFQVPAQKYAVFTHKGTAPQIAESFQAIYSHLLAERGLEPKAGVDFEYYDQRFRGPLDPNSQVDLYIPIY", "assay": "EMSA, C2E mut2 with PbrlR DNA", "type": "biochemical", "protocol": "as §1"}, "C2E mut1 DNA binding": {"target": "T6, C2E mut1 DNA binding (Pseudomonas aeruginosa, UniProt Q9HUT5, D35A/R31A/Y270A/Y40A)", "T6 construct": "His6-SUMO (N, cleaved yes); made in house; host or cells: E. coli BL21 DE3", "T6 sequence (Q9HUT5 whole entry R31A/D35A/Y40A/Y270A)": "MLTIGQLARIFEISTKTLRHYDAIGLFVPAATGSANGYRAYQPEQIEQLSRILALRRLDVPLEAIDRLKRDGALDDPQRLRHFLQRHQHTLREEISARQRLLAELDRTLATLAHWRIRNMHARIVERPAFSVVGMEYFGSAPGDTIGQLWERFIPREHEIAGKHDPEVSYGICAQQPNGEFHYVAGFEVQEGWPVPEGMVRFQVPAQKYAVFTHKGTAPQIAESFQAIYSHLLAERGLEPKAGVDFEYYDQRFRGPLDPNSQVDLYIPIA", "assay": "EMSA, C2E mut1 with PbrlR DNA", "type": "biochemical", "protocol": "as §1"}, "BrlR mutant R86A": {"target": "T7, BrlR mutant R86A (Pseudomonas aeruginosa, UniProt Q9HUT5, R86A)", "T7 construct": "His6-SUMO (N, cleaved yes); made in house; host or cells: E. coli BL21 DE3", "T7 sequence (Q9HUT5 whole entry R86A)": "as the sequence (Q9HUT5 whole entry R86A) above", "assay": "FP binding assay, BrlR R86A", "protocol": "(§2) F-c-di-GMP and F-c-di-AMP both contain a fluorophore at one of the 2′-ribose hydroxyls of c-di-GMP and c-di-AMP, respectively (Fig. 2f). To measure the binding of c-di-GMP and c-di-AMP to BrlR variants, 1 nM F-c-di-GMP or F-c-di-AMP was incubated with increasing amounts of indicated BrlR WT, BrlR mutation, or BrlR-C in reaction buffer (25 mM HEPES, 100 mM NaCl, pH 7.5) at 25 °C for 20 min. 1 nM fluorescein was incubated with BrlR WT in the same reaction buffer at 25 °C. FP measurements were conducted on a Synergy 4 Microplate Reader (BioTek) at 25 °C. All experiments were performed in triplicate. The curves were fitted to deduce binding affinities by GraphPad Prism 5.\n(§3) BrlR–c-di-GMPs interactions in two separate c-di-GMP binding sites\n(§4) In the first binding site, c-di-GMP is half accommodated by the antiparallel β-sheet and two residues (M1 and D35). In detail, the backbone amide protons of the first M1 residue form a hydrogen bond (H-bond) with the phosphate oxygen atom of c-di-GMP, and the side chain of R31 forms two H-bonds with the Gua1 base. The residue D35 also forms an H-bond with the Gua1 base. The aromatic ring of Y40 interacts with the Gua1 base through a hydrophobic π-π interaction. In addition, the hydroxyl group of the Y270 side chain from another subunit interacts with the phosphate 2 of c-di-GMP via an H-bond (Fig. 2d). […]"}, "BrlR mutant R67A": {"target": "T8, BrlR mutant R67A (Pseudomonas aeruginosa, UniProt Q9HUT5, R67A)", "T8 construct": "His6-SUMO (N, cleaved yes); made in house; host or cells: E. coli BL21 DE3", "T8 sequence (Q9HUT5 whole entry R67A)": "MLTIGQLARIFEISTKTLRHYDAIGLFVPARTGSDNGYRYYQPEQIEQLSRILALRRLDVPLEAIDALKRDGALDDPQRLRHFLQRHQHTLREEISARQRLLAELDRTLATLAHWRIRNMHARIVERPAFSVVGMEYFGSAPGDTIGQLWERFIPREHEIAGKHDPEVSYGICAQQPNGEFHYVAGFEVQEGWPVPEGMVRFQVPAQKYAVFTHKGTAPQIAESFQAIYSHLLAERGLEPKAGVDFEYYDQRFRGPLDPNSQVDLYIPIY", "assay": "FP binding assay, BrlR R67A", "protocol": "as §2, §3, §4"}, "BrlR mutant R31A": {"target": "T9, BrlR mutant R31A (Pseudomonas aeruginosa, UniProt Q9HUT5, R31A)", "T9 construct": "His6-SUMO (N, cleaved yes); made in house; host or cells: E. coli BL21 DE3", "T9 sequence (Q9HUT5 whole entry R31A)": "as the sequence (Q9HUT5 whole entry R31A) above", "assay": "FP binding assay, BrlR R31A", "protocol": "as §2, §3, §4"}},
  "data": [
    {"smiles": "Nc1nc2c(ncn2[C@@H]2O[C@@H]3COP(=O)(O)O[C@H]4[C@@H](O)[C@H](n5cnc6c(=O)[nH]c(N)nc65)O[C@@H]4COP(=O)(O)O[C@H]3[C@H]2O)c(=O)[nH]1", "note": "[c-di-GMP, cyclic diguanylate monophosphate]", "values": [
      {"measurement": "effect of c-di-GMP and pyocyanin together on BrlR-DNA binding", "setting": "BrlR-DNA binding (PbrlR); PbrlR, c-di-GMP, pyocyanin, and both", "result": "cooperatively enhance"},
      {"measurement": "BrlR-DNA complex in the presence vs absence of c-di-GMP", "setting": "BrlR-DNA binding (PbrlR); wild-type BrlR, band densitometry", "result": 5.5, "unit": "fold"},
      {"measurement": "effect on BrlR-PbrlR DNA binding (in words)", "setting": "BrlR-DNA binding (PbrlR); wild-type BrlR, increasing concentrations of compound", "result": "significantly promoted"},
      {"measurement": "DNA bound in the presence vs absence of c-di-GMP", "setting": "BrlR R86A DNA binding", "result": "~ 1.5 fold"},
      {"measurement": "DNA bound in the presence vs absence of c-di-GMP", "setting": "BrlR R31A DNA binding", "result": "~ 1.3 fold"},
      {"measurement": "competition with F-c-di-GMP binding to BrlR", "setting": "BrlR", "result": "outcompeted specifically"},
      {"measurement": "BrlR-DNA complex in the presence vs absence of c-di-GMP", "setting": "C2E mut2 DNA binding", "result": 1.9, "unit": "fold"},
      {"measurement": "BrlR-DNA complex in the presence vs absence of c-di-GMP", "setting": "C2E mut1 DNA binding", "result": 1.5, "unit": "fold"},
      {"measurement": "KD value (in words)", "setting": "BrlR mutant R86A", "result": "like that of C2E mut2"},
      {"measurement": "Kd", "setting": "BrlR mutant R67A", "result": "16.4 ± 1", "unit": "µM"},
      {"measurement": "Kd", "setting": "BrlR mutant R31A", "result": "42.7 ± 5.4", "unit": "µM"}
    ]}
  ]
}
